Source: publication PMC8596843, “Platinum Cyclooctadiene Complexes with Activity against Gram‐positive Bacteria” (Chemmedchem, 2021)

Experiments:
[1] = Antimicrobial activity of cisplatin in all assays of the paper; format: cell-based
Protocol: Following a protocol previously reported by us we used larvae of the greater wax moth Galleria mellonella as a model organism for in vivo toxicity and efficacy.[20] […] Briefly, stock solutions of Pt1 and Pt2 were prepared in DMSO and diluted to final concentrations of 0.4 mM, 100 μM, 10 μM and 1 μM. Due to solubility limitations higher concentrations could not be evaluated. For each concentration five larvae were injected with 10 μL and monitored for 96 hours for survival and health using the G. mellonella Health Index Scoring System.[22]

[2] = test system: HEK-293 ATCC CRL-1573 human embryonic kidney cells; format: cell-based
Protocol: As part of the CO‐ADD screening, all compounds that show any activity against a microbial strain are evaluated for their cytotoxicity against human embryonic kidney cells (HEK‐293) and for haemolysis against human red blood cells. None of the compounds tested for cytotoxicity (Pt1‐9 and Pd1) caused any significant cell death up to concentrations of 100 μM. […] We have also observed higher IC50 values for the methylated complexes Pt3 and Pt4 against HeLa cells in previous work.[16] […]
(§1) inhibitors as positive control.
(§2) Tamoxifen (Sigma T5648) was used
(§3) as internal control on each plate.
in a Neubauer haemocytometer. […]

[3] = test system: human red blood cells; assay: Haemolysis assay; format: cell-based; conditions: for Haemolysis HC10: concentration inducing 10 % haemolysis; for Haemolysis HC50: concentration inducing 50 % haemolysis
Protocol: As part of the CO‐ADD screening, all compounds that show any activity against a microbial strain are evaluated for their cytotoxicity against human embryonic kidney cells (HEK‐293) and for haemolysis against human red blood cells. None of the compounds tested for cytotoxicity (Pt1‐9 and Pd1) caused any significant cell death up to concentrations of 100 μM. […] We have also observed higher IC50 values for the methylated complexes Pt3 and Pt4 against HeLa cells in previous work.[16]
(§4) The resultant mid-log phase cultures were diluted
(§5) Gram-negative and Gram-positive bacteria, respectively.
(§6) final concentration range of 0.8 – 100 µM.
as §1, §2, §3
in a Neubauer haemocytometer.
incubated for 1 h at 37 °C, without shaking.
HC10 and HC50 (concentration at which 10%
for top, bottom and slope using Prism 8. […]

[4] = test system: Staphylococcus aureus ATCC 25923, MSSA; assay: Antibacterial MIC assay, Gram-positive panel; format: cell-based; conditions: Table S1 panel; n=4
Source text: (§7) Bis(dimethyl-η4)-((1Z,1'E,5Z,5'E)-(1,1'-bi(cyclooctadiene))diplatinum(II) (Pt14) Smiles: C1C=CCCC(=CC1)C1=CCCC=CCC1.C[Pt]C.C[Pt]C
(§8) InChIKey: PHIWIZAHOBWKFJ-HPCBIOCFSA-N
(§9) Link to selected data that was repeated to approve the identity of the compounds: https://dx.doi.org/10.14272/PHIWIZAHOBWKFJ-HPCBIOCFSA-N.1
(§10) ATCC strains were sourced from the American Type Culture Collection and NRS strains from NARSA (Network on Antimicrobial Resistance in Staphylococcus aureus) via BEI Resources (www.beiresources.org), with clinical MSSA and MRSA isolates from Prof Graeme Nimmo, Queensland […]
(§11) Health Central Pathology. […]
(§12) Antibacterial minimum inhibitory concentration (MIC) assay
(§13) Compound Assay Plate Preparation: Compounds were dissolved in DMSO at 10mM (CO-ADD screening) or 4 mM (follow up screening) and were plated in a 2-fold dose response from 20 to 0.156 µM or 200 to 0.006 µM respectively, with a maximum of 0.5% or 1% DMSO, final in the assay […]
(§14) plated in a 2-fold dose response from 200 to 0.006 µM, with a maximum of 1 % DMSO, final in the assay concentration. (in-house screening)
(§15) For all the bacterial assays, each strain was cultured in Cation-adjusted Mueller Hinton broth (CAMHB; Bacto Laboratories 212322) at 37 °C overnight. A sample of each culture was then diluted 40-fold in fresh CAMHB and incubated at 37 °C for 1.5–3 h. The resultant mid-log phase cultures were diluted with CAMHB (CFU mL−1 measured by OD600), then added to each well of the compound-containing plates (384-well non-binding surface (NBS) plates; Corning CLS3640), giving a cell density of 5 × 10^5 CFU mL−1 and a total volume of 50 μL. Plates were covered and incubated at 37 °C for 18 h without shaking. Inhibition of bacterial growth was determined measuring absorbance at 600 nm (OD600), using media only as negative control and bacteria without inhibitors as positive control. MIC values were determined as the lowest concentration at which the growth was inhibited at ≥80%. Colistin sulfate (Sigma C4461) and vancomycin HCl (Sigma 861987) were used as internal controls on each plate for Gram-negative and Gram-positive bacteria, respectively. […]

[5] = test system: Staphylococcus aureus VRS 1, VRSA (VanA); assay: Antibacterial MIC assay, Gram-positive panel; format: cell-based; conditions: Table S1 panel; n=4
Source text: as §7, §8, §9, §10, §11, §12, §13, §14, §15

[6] = test system: Enterococcus faecalis Clinical Isolate, VRE (VanB); assay: Antibacterial MIC assay, Gram-positive panel; format: cell-based; conditions: Table S1 panel; n=4
Protocol: (§16) Smiles: C1C=CCCC(=CC1)C1=CCCC=CCC1.C[Pt]C.C[Pt]C […]
as §10, §11, §12, §13, §14, §15

[7] = test system: Enterococcus faecium ATCC 35667, type strain; assay: Antibacterial MIC assay, Gram-positive panel; format: cell-based; conditions: Table S1 panel; n=4
Protocol: as §16, §10, §11, §12, §13, §14, §15

[8] = test system: Staphylococcus epidermidis ATCC 14990, type strain; assay: Antibacterial MIC assay, Gram-positive panel; format: cell-based; conditions: Table S1 panel; n=4
Protocol: as §16, §10, §11, §12, §13, §14, §15

[9] = test system: Staphylococcus epidermidis NRS 60, VISE; assay: Antibacterial MIC assay, Gram-positive panel; format: cell-based; conditions: Table S1 panel; n=4
Protocol: as §16, §10, §11, §12, §13, §14, §15

[10] = test system: E. coli lpxC (non‐efficient lipid A production mutant); assay: MIC against E. coli membrane mutants; format: cell-based, Escherichia coli; conditions: Table S2
Protocol: as §12
(§17) concentration. (in-house screening)
(§18) Bacto Laboratories 212322) at 37 °C overnight.
as §4, §5, §6
(§19) inhibitors as positive control. […]

[11] = test system: E. coli tolC (efflux pump deficient); assay: MIC against E. coli membrane mutants; format: cell-based, Escherichia coli; conditions: Table S2
Protocol: as §12, §17, §18, §4, §5, §6, §19

[12] = test system: B. subtilis ATCC 6051 type strain; assay: MIC in the presence of human serum (serum reversal); format: cell-based, Bacillus subtilis; conditions: 10% serum
Source text: (§20) To obtain some initial insight into the apparent disparity between in vitro and in vivo results, we repeated the MIC experiments against four selected Gram‐positive strains in the presence of 10 % or 50 % human serum (Table S3). Pt1 and Pt2 maintained some antibacterial activity against B. subtilis in the presence of 10 % serum, but a complete loss of activity was observed against MRSA and GISA (50 % serum), and VRE (10 % serum). […] Systemic administration is therefore unlikely to be a suitable administration route for this class of compounds unless an alternative formulation that can prevent serum binding (e. g. by lipid or nanoparticle encapsulation) can be found. […] Further in vivo studies should therefore focus on more suitable disease models. […]
as §12, §17, §18, §4, §5, §6, §19

[13] = test system: S. aureus ATCC 43300 MRSA; assay: as above; format: cell-based, Staphylococcus aureus; conditions: 50% serum
Source text: as §20, §12, §17, §18, §4, §5, §6, §19

[14] = test system: S. aureus NRS 17 GISA; assay: as above; format: cell-based, Staphylococcus aureus; conditions: 50% serum
Source text: as §20, §12, §17, §18, §4, §5, §6, §19

[15] = test system: E. faecium ATCC 51559 MDR, VRE; assay: as above; format: cell-based, Enterococcus faecium; conditions: 10% serum
Source text: as §20, §12, §17, §18, §4, §5, §6, §19

[16] = test system: Staphylococcus aureus ATCC 43300 (MRSA); assay: microbe, parasite or virus in culture; format: cell-based; conditions: for MIC Sa: CO‐ADD screening
Protocol: (§21) All compounds submitted to CO‐ADD are initially screened against five bacterial strains (Staphylococcus aureus (MRSA), E. coli, Klebsiella pneumoniae, Pseudomonas aeruginosa, Acinetobacter baumannii) and two fungal strains (Candida albicans, Cryptococcus neoformans) at a single concentration (32 μg/mL or 20 μM) performed as a high‐throughput primary screening.[[11], [17a]] Any compounds that show significant growth inhibition against any of the tested strains at this step are then evaluated in a dose‐response assay against these same strains. […]
as §16, §10, §11, §12, §13, §14, §15

[17] = test system: Acinetobacter baumannii ATCC 19606; assay: Antibacterial MIC assay; format: cell-based; conditions: CO‐ADD screening
Protocol: as §21, §16, §10, §11, §12, §13, §14, §15

[18] = test system: Escherichia coli ATCC 25922; assay: Antibacterial MIC assay; format: cell-based; conditions: CO‐ADD screening
Protocol: as §21, §16, §10, §11, §12, §13, §14, §15

[19] = test system: Pseudomonas aeruginosa ATCC 27853; assay: Antibacterial MIC assay; format: cell-based; conditions: CO‐ADD screening
Protocol: as §21, §16, §10, §11, §12, §13, §14, §15

[20] = test system: Klebsiella pneumoniae ATCC 700603 (ESBL SHV‐18)
Protocol: as §21, §16, §10, §11, §12, §13, §14, §15

[21] = test system: Candida albicans ATCC 90028; assay: Antifungal MIC (CO-ADD screening); format: cell-based
Protocol: as §8
(§22) Health Central Pathology. Candida albicans (ATCC 90028, NCCLS 11), Cryptococcus neoformans
as §12, §17, §18

[22] = test system: Cryptococcus neoformans H99 ATCC 208821; assay: Antifungal MIC (CO-ADD screening); format: cell-based
Protocol: as §8, §22, §12, §17, §18

[23] = test system: Enterococcus faecalis ATCC 29212, control strain; assay: Antibacterial MIC assay, Gram-positive panel; format: cell-based; conditions: Table S1 panel; n=4
Protocol: as §16, §10, §11, §12, §13, §14, §15

[24] = test system: Enterococcus faecium ATCC 51559, MDR, VRE (VanA); assay: Antibacterial MIC assay, Gram-positive panel; format: cell-based; conditions: Table S1 panel; n=2
Protocol: as §16, §10, §11, §12, §13, §14, §15

[25] = test system: Enterococcus faecium Clinical Isolate, VRE (VanA); assay: Antibacterial MIC assay, Gram-positive panel; format: cell-based; conditions: Table S1 panel; n=4
Protocol: as §16, §10, §11, §12, §13, §14, §15

[26] = test system: HT‐29 colon carcinoma; set-up: method as in earlier work; conditions: ref 14a, read-out: IC50 cytotoxicity; cited from earlier work
[27] = test system: MCF‐7 breast cancer cells; set-up: method as in earlier work; conditions: ref 14a, read-out: IC50 cytotoxicity; cited from earlier work
[28] = test system: Staphylococcus aureus NRS 17, GISA; assay: Antibacterial MIC assay, Gram-positive panel; format: cell-based; conditions: Table S1 panel; n=2
Protocol: as §16, §10, §11, §12, §13, §14, §15

| SMILES | CC50 [2] [µM] | Haemolysis HC10 [3] [µM] | Haemolysis HC50 [3] [µM] | MIC [4] [µM] | MIC [5] [µM] | MIC [6] [µM] | MIC [7] [µM] | MIC [8] [µM] | MIC [9] [µM] | MIC E. coli lpxC [10] [µM] | MIC E. coli TolC [11] [µM] | MIC in the presence of human serum [12] [µM] | MIC in the presence of human serum [13] [µM] | MIC in the presence of human serum [14] [µM] | MIC in the presence of human serum [15] [µM] | MIC Sa [16] [µM] | MIC Ab [17] [µM] | MIC Ec [18] [µM] | MIC Pa [19] [µM] | MIC Kp [20] [µM] | further results |
| --- | --- | --- | --- | --- | --- | --- | --- | --- | --- | --- | --- | --- | --- | --- | --- | --- | --- | --- | --- | --- | --- |
| N.N.[Cl][Pt][Cl] [cisplatin] |  |  |  |  |  |  |  |  |  |  |  |  |  |  |  |  |  |  |  |  | antimicrobial activity [1]: no antimicrobial activity |
| C1=CCCC=CCC1.[CH3][Pt][CH3] [Pt3] | > 100 | >100 | >100 | 50 | > 200 | 200 | 200 | 6.25 | 25 | 200 | > 200 | > 200 | > 200 | > 200 | > 200 |  |  |  |  |  |  |
| C1=CCCC=CCC1.[CH3][Pt][Cl] [Pt4] | > 100 | 10.23 | 52.11 | 100 | > 200 | > 200 | > 200 | 50 | 100 |  |  | > 200 | > 200 | > 200 | > 200 | >20 | >20 | >20 | >20 | >20 | MIC ([16]; Table S1 panel, n=2): 6.25 µM; MIC Ca [21]: 5 to 10 µM; MIC Cn [22]: 10 to 20 µM; MIC [23]: > 200 µM; MIC [24]: 25 µM; MIC [25]: 200 µM; IC50 [26]: 8.3 ± 3 µM; IC50 [27]: 11.2 ± 1.4 µM |
| CCC1=CCCC=CCC1.[CH3][Pt][C](F)(F)C(F)(F)C(F)(F)C(F)(F)C(F)(F)C(F)(F)C(F)(F)C(F)(F)F [Pt9] | > 100 | >100 | >100 |  |  |  |  |  |  | > 200 | > 200 | > 200 | > 200 | > 200 | > 200 | >20 | >20 | >20 | >20 | >20 | MIC Ca [21]: >20 µM; MIC Cn [22]: 1.25 µM; MIC [24]: 100 µM; MIC [28]: 100 µM |
